Source: paper PMC12136037, “Type II kinase inhibitors that target Parkinson’s disease–associated LRRK2” (Science Advances, 2025)
One block for each compound: values may come before it.

How the values were obtained:
Assay in all cases: DSF 100 kinase selectivity screen;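 also: compound tested at 20 µM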
Assay type in all cases: binding
[1] = biological target: T1, ~100 representative kinases (Homo sapiens, UniProt O94804); settings: Protein STK10; DSF; average of three replicates
T1 construct: Recombinant protein kinase domains with a concentration of 2 μM
In short: (§1)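 Each kinase domain, at 2 μM, is mixed with 20 μM test compound and SYPRO Orange in Hepes (20 mM, pH 7.5) with 500 mM NaCl. Temperature is then raised at 3°C/min and fluorescence-monitored unfolding yields the melting temperature change, ΔTm in degrees Celsius.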

[2] = biological target: T2, ~100 representative kinases (Homo sapiens, UniProt P45985); settings: protein MAP2K4; average of three replicates
T2 construct: Recombinant protein kinase domains with a concentration of 2 μM
T2 sequence (P45985 1-399): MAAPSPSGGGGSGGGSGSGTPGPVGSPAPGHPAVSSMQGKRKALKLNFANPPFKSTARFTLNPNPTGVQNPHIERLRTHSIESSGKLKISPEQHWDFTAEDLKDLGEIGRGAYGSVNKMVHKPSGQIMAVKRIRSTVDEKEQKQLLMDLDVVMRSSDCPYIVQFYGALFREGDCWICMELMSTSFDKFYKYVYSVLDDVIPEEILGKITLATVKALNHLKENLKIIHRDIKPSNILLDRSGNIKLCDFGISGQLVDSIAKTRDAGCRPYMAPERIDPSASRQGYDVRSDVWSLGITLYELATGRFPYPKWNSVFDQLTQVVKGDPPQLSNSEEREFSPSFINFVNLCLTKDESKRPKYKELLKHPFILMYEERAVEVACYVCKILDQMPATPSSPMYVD
In short: as §1

[3] = biological target: T3, ~100 representative kinases (Homo sapiens, UniProt P53355); settings: Protein DAPK1; average of three replicates
T3 construct: Recombinant protein kinase domains with a concentration of 2 μM
In short: as §1

[4] = biological target: T4, ~100 representative kinases (Homo sapiens, UniProt Q13557); settings: Protein CAMK2D; average of three replicates
T4 construct: Recombinant protein kinase domains with a concentration of 2 μM
In short: as §1

[5] = biological target: T5, ~100 representative kinases (Homo sapiens, UniProt Q15375); settings: Protein EPHA7; average of three replicates
T5 construct: Recombinant protein kinase domains with a concentration of 2 μM
In short: as §1

[6] = biological target: T6, ~100 representative kinases (Homo sapiens, UniProt Q8TD08); settings: protein MAPK15; average of three replicates
T6 construct: Recombinant protein kinase domains with a concentration of 2 μM
T6 sequence (Q8TD08 1-544): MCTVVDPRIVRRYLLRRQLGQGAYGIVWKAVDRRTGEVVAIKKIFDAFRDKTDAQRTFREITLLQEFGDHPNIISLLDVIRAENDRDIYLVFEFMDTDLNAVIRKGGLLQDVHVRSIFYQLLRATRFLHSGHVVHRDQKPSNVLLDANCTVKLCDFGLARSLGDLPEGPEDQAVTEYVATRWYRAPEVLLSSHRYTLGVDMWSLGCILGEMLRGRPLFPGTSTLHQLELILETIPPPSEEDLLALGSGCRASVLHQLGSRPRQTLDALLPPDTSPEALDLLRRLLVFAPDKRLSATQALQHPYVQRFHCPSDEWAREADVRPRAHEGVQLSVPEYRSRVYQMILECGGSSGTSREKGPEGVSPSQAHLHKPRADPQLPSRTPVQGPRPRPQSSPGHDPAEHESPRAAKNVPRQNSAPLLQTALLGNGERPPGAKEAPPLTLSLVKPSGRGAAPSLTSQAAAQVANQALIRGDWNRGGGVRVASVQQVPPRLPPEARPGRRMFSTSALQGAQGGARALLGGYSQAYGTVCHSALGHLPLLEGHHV
In short: as §1

[7] = biological target: T7, ~100 representative kinases (Homo sapiens, UniProt Q92630); settings: Protein DYRK2; average of three replicates
T7 construct: Recombinant protein kinase domains with a concentration of 2 μM
T7 sequence (Q92630 1-601): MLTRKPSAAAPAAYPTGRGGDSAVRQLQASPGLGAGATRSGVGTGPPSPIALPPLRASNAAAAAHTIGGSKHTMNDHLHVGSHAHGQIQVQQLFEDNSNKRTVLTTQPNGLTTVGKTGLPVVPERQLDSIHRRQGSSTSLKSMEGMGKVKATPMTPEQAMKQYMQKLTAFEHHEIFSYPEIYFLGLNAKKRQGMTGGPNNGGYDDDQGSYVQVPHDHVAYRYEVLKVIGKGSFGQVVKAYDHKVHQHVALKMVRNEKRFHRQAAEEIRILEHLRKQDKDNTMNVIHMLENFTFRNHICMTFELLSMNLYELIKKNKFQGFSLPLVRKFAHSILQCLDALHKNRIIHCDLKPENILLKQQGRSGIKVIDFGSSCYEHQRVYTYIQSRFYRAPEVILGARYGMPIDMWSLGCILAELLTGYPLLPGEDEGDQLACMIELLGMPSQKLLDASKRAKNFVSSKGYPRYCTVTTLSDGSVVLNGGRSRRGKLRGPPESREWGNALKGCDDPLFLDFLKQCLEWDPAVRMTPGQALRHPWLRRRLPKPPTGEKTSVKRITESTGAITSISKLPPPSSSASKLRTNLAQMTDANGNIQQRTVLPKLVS
In short: as §1

[8] = biological target: T8, ~100 representative kinases (Homo sapiens, UniProt Q96L34); settings: protein MARK4; average of three replicates
T8 construct: Recombinant protein kinase domains with a concentration of 2 μM
T8 sequence (Q96L34 1-752): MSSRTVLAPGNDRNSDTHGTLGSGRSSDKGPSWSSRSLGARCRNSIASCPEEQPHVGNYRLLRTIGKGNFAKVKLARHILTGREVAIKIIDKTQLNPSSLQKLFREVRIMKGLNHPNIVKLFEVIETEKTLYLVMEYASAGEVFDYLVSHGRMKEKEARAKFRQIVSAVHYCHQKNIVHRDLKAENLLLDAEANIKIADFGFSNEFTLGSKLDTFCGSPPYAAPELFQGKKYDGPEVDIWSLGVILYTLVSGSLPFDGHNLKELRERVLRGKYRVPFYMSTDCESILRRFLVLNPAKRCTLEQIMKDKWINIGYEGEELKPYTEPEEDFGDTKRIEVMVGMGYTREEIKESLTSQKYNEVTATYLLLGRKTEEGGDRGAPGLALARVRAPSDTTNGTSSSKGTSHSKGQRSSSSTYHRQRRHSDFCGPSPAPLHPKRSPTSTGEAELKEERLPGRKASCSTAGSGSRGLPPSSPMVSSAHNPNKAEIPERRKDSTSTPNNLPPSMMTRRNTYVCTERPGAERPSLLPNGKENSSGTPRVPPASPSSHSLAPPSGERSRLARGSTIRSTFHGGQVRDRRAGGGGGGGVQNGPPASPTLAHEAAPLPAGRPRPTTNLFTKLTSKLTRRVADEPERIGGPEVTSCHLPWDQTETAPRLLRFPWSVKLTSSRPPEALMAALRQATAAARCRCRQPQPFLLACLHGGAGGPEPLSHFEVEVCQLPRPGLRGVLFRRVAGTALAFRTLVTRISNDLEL
In short: as §1

T4 sequence (Q13557 whole entry, the tested form may be a part): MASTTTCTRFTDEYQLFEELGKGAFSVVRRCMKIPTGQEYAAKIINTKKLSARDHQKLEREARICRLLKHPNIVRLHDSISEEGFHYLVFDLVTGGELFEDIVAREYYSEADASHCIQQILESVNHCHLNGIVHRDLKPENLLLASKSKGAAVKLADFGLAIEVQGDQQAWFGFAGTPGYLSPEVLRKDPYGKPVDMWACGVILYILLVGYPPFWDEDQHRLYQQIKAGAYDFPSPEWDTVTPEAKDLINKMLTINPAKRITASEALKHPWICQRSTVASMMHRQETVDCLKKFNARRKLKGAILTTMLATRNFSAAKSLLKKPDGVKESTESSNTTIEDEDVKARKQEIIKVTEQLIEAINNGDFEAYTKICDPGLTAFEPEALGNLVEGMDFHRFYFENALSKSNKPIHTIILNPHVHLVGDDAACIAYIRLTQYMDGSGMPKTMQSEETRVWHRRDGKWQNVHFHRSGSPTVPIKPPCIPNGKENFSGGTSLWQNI
T3 sequence (P53355 whole entry, the tested form may be a part): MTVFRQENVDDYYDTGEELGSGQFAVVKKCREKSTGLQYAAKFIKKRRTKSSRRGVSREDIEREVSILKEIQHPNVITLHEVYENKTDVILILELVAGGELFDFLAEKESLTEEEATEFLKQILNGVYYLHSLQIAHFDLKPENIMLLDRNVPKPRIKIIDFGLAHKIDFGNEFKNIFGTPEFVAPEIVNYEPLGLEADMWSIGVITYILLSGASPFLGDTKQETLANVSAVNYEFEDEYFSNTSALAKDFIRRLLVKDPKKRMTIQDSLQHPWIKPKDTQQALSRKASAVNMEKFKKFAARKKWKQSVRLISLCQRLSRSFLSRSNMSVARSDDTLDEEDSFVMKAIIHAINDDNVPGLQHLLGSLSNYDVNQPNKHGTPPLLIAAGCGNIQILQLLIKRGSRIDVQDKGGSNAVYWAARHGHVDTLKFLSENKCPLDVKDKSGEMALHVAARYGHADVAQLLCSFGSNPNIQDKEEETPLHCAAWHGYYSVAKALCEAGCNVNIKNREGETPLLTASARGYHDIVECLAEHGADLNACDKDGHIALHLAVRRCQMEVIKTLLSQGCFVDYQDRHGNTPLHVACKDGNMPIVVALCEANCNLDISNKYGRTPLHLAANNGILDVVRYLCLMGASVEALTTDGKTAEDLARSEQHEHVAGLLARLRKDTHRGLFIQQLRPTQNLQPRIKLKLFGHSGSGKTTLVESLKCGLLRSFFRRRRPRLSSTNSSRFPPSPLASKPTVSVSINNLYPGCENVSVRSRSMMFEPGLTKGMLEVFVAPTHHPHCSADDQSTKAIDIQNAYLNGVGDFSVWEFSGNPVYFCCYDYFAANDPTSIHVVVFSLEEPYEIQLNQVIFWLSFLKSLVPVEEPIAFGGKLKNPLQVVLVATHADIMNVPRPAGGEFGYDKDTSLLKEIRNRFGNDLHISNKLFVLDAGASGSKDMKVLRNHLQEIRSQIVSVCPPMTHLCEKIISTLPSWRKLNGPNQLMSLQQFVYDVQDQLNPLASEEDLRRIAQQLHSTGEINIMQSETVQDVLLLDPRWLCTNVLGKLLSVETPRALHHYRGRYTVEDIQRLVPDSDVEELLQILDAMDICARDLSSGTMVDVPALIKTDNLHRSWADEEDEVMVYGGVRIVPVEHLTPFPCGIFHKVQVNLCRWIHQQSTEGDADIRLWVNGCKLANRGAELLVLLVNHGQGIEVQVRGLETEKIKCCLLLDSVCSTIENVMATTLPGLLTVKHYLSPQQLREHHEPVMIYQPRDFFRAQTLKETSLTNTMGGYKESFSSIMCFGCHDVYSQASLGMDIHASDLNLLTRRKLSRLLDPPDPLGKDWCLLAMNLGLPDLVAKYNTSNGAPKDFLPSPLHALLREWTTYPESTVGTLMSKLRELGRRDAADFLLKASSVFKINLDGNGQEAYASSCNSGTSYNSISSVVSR
T5 sequence (Q15375 28-998): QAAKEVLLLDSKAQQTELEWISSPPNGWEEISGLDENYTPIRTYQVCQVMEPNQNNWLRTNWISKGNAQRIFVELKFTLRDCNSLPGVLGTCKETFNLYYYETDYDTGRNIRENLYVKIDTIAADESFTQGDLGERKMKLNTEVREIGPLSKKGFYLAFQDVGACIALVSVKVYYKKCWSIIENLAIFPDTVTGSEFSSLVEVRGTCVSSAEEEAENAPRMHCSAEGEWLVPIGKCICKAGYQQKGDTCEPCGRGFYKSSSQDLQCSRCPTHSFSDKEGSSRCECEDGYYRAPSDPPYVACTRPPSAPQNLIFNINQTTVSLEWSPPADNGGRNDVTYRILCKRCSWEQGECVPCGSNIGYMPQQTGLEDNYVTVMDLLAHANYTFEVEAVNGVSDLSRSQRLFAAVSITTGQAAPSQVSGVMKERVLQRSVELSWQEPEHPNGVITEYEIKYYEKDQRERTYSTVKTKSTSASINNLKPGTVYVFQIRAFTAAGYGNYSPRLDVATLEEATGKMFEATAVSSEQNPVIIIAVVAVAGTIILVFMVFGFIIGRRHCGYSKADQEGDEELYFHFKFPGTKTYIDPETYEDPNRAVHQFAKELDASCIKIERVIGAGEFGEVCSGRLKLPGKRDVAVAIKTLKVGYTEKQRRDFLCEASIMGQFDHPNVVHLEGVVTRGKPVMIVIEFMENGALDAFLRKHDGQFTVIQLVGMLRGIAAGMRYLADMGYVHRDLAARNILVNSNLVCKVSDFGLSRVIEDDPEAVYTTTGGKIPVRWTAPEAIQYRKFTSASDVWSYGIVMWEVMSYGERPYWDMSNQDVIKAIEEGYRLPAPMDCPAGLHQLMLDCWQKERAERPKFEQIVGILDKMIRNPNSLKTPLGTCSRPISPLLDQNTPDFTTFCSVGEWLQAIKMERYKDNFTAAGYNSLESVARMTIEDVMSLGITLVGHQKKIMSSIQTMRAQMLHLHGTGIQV
T1 sequence (O94804 whole entry, the tested form may be a part): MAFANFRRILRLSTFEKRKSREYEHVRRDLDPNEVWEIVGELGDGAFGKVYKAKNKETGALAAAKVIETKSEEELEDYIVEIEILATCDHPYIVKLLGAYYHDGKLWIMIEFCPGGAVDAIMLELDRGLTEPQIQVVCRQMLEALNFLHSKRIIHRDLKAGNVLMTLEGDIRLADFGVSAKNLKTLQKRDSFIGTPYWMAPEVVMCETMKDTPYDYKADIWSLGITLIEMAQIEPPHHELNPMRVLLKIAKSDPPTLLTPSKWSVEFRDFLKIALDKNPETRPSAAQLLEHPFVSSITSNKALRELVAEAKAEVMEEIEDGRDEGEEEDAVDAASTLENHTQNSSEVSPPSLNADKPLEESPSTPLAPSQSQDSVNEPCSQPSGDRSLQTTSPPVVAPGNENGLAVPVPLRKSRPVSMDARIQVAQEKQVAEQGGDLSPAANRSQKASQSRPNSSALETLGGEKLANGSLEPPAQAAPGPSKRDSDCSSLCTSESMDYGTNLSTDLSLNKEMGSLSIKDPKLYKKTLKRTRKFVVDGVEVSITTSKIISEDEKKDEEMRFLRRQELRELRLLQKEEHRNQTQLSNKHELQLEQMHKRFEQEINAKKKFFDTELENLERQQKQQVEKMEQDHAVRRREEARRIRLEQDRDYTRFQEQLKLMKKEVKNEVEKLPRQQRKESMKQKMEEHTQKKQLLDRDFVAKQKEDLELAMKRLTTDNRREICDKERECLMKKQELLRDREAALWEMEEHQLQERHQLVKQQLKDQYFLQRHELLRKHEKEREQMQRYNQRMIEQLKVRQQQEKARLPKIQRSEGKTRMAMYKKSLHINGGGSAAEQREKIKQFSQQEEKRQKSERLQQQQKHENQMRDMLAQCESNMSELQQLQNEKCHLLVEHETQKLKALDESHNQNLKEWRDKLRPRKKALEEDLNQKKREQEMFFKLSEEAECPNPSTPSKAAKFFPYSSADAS

SMILES: COc1cc2c(Oc3ccc(NC(=O)C4(C(=O)Nc5ccc(F)cc5)CC4)cc3F)ccnc2cc1OCCCN1CCOCC1 [Foretinib, reference compound]
dTm [1]: 16.81 K
dTm [2]: 2.73 K
dTm [3]: -0.15 K
dTm [4]: 0.34 K
dTm [5]: -0.16 K
dTm [6]: 8.58 K
dTm [7]: 4.19 K
dTm [8]: 1.64 K

dTm [1]: -0.11 K
dTm [2]: 1.26 K
dTm [3]: 1.29 K
dTm [4]: -0.06 K
dTm [5]: -0.20 K
dTm [7]: 4.85 K
dTm [8]: -0.13 K
SMILES: CCNc1nc(Nc2cc(F)c(C(=O)N3CCOCC3)cc2OC)ncc1C(F)(F)F [GNE-7915]
dTm [6]: 2.03 K

SMILES: C[C@@H]1CN(c2cc(-c3n[nH]c4ccc(OC5(C)CC5)cc34)ncn2)C[C@H](C)O1 [MLi2]
dTm [1]: -0.79 K
dTm [2]: 0.87 K
dTm [3]: 0.22 K
dTm [4]: 1.10 K
dTm [5]: 0.12 K
dTm [6]: -0.33 K
dTm [7]: 1.21 K
dTm [8]: -0.55 K

SMILES: Cn1cc(-c2c[nH]c3ncnc(N4CCOCC4)c23)cc1C#N [PFE-360]
dTm [1]: 7.58 K
dTm [2]: 1.90 K
dTm [3]: 0.54 K
dTm [4]: 0.51 K
dTm [5]: -0.34 K
dTm [6]: 3.82 K
dTm [7]: 1.08 K
dTm [8]: 3.49 K

SMILES: CNC(=O)c1cc(Oc2ccc(NC(=O)Nc3cc(C(C)(C)C)nn3-c3ccc4ncccc4c3)c(F)c2)ccn1 [Rebastinib, reference compound]
dTm [1]: 16.27 K
dTm [2]: 0.53 K
dTm [3]: -1.01 K
dTm [4]: 2.16 K
dTm [5]: 3.35 K
dTm [6]: 14.70 K
dTm [7]: 6.14 K
dTm [8]: 2.04 K
